Read-outs that look alike come from different tables or passages of the source.
Key:
[1] = test system: rabbit skeletal muscle myosin; assay: Inhibition of hydrolysis of ATP by rabbit skeletal muscle myosin; format: biochemical
Outline: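 Actin-activated ATPase: F-actin plus rabbit skeletal myosin II with compound in Tris-HCl pH 7.5/KCl/EGTA/MgCl2, started with ATP (3 mM working stock) and run 60 min at 37 °C. Released Pi measured by CytoPhos absorbance at 650 nm against a phosphate standard curve; IC50 fitted from inhibition relative to uninhibited myosin.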

cardiac myosin SII = biological target: T1, cardiac myosin SII (Bos taurus, UniProt Q9BE39); assay: Inhibition of hydrolysis of ATP by cardiac myosin SII; format: biochemical; conditions: 100 μM compound
T1 construct: purchased Cytoskeleton #MYO3-A
T1 sequence (Q9BE39 whole entry): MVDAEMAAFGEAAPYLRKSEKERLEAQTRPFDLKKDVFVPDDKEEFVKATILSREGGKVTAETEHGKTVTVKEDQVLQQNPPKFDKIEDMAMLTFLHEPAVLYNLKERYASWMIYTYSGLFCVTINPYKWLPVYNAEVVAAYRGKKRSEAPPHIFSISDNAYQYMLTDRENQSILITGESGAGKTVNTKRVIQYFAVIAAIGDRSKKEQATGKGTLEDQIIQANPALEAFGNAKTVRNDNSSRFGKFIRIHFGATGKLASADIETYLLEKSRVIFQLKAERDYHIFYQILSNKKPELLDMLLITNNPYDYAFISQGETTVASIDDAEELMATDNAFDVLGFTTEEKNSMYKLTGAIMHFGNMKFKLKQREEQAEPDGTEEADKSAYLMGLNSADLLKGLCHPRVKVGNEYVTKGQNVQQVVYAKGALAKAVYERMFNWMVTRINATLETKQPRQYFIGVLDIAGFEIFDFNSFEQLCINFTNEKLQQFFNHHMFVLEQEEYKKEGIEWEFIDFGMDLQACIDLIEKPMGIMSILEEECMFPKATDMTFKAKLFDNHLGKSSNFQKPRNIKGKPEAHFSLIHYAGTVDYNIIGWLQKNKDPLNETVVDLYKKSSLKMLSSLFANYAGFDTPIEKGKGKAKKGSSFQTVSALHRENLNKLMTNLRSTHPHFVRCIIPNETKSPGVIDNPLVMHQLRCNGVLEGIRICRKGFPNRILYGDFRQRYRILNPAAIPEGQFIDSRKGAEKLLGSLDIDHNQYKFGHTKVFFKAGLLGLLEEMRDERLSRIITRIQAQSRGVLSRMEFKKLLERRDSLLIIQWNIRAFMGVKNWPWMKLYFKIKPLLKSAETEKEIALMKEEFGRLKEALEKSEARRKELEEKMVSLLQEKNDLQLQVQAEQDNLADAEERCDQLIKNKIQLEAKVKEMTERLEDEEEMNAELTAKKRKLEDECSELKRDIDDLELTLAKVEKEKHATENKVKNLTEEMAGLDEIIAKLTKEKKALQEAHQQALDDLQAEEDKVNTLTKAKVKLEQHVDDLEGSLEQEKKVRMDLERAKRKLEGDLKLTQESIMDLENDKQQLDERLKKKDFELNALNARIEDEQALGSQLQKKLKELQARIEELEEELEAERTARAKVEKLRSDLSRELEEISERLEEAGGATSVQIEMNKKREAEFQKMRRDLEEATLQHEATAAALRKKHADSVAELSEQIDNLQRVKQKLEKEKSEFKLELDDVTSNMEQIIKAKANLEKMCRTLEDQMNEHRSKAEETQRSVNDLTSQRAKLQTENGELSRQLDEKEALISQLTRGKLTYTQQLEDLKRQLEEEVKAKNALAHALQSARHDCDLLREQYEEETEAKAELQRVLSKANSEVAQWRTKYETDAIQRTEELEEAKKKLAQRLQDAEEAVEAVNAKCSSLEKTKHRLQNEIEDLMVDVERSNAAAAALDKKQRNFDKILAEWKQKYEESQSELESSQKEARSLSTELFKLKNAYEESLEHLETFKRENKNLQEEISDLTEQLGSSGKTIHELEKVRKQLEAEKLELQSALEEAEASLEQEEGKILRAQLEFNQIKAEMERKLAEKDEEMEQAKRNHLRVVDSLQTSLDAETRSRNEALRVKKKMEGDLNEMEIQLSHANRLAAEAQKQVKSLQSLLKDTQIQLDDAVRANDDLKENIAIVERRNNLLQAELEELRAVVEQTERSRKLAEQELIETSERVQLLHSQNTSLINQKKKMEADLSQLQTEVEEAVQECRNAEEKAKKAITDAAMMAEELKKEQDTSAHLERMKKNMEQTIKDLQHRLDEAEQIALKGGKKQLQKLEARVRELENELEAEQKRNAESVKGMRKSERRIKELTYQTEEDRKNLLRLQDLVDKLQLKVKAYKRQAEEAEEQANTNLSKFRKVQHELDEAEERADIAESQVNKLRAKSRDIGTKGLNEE
T1 sequence (P85100 whole entry partner): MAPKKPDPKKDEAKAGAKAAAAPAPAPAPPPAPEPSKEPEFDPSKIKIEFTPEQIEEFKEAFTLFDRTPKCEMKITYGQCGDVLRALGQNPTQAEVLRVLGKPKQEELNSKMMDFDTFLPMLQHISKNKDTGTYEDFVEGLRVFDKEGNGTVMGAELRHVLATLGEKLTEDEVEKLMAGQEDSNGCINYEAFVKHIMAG
T1 sequence (Q3SZE5 whole entry partner): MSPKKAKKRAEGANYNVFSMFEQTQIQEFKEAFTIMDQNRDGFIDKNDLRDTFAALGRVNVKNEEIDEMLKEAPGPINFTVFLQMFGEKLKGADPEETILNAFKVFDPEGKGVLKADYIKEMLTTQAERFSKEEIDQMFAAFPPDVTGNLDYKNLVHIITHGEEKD
Outline: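 Bovine cardiac myosin with preformed F-actin in 15 mM Tris-HCl pH 7.5, 10 mM KCl, 2 mM MgCl2, 0.1 mM EGTA; compounds at 100 μM final, ATP from 3 mM working solution, 2 h at 37 °C. Released Pi measured colorimetrically at 650 nm against a Pi standard curve; % inhibition vs. DMSO control.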

smooth muscle myosin S1 = biological target: T2, smooth muscle myosin S1 (Gallus gallus, UniProt P10587); assay: Inhibition of hydrolysis of ATP by smooth muscle myosin S1 fragments; format: biochemical; conditions: 100 μM compound
T2 construct: purchased Cytoskeleton #CS-MYS05
T2 sequence (P10587 84-789 limits assumed): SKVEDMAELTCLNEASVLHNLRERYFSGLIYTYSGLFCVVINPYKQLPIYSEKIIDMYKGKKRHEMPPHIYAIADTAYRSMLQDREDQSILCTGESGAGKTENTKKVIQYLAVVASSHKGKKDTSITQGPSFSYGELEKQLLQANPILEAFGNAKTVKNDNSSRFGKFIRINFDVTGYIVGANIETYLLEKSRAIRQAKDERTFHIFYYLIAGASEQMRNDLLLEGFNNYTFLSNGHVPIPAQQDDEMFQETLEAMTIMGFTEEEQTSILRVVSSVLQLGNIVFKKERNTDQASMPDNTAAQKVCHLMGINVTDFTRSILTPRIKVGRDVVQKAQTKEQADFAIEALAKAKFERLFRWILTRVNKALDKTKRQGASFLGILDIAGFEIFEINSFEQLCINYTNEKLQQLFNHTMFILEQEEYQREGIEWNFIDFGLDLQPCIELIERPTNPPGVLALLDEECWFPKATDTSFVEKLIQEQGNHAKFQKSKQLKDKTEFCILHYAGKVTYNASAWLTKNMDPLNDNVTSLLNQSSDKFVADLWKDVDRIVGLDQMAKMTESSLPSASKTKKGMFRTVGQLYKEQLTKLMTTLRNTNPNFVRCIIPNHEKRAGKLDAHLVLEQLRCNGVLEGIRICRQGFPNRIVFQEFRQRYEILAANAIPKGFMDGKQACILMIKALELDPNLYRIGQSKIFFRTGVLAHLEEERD
T2 sequence (P02607 whole entry partner, the tested form may be a part): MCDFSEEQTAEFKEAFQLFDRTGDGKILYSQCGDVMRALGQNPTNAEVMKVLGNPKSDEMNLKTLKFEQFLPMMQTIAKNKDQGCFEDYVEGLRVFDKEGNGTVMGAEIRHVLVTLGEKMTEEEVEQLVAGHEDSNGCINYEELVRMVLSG
Outline: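 Smooth muscle myosin S1 fragment (0.7 mg/mL in PM12 buffer with 1 mM DTT) was mixed with compound and F-actin polymer prepared from cardiac actin, then 5 mM ATP working solution started the reaction at 37° C. for 20 min. Released Pi was measured with CytoPhos reagent at 650 nm against a standard curve, and inhibition was calculated relative to positive control wells.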

[2] = Pharmacokinetic experiment in mice; format: in vivo; conditions: male, C57, po; mouse plasma, i.g. (10 mg/kg)
Method: (§1) 1. Experimental animals: Male C57 mice, 22-25 g, 6 mice/compound. Purchased from Chengdu Ddossy Experimental Animals Co., Ltd.
(§2) 2. Experimental design: On the day of the experiment, 12 C57 mice were randomly grouped according to their body weight. The animals were fasted with water available for 12 to 14 h one day before the administration and were fed 4 h after the administration.
Before and after the administration, 0.06 mL of blood was taken from the orbit of the animals under isoflurane anesthesia and placed in an EDTAK2 centrifuge tube. The blood was centrifuged at 5000 rpm and 4° C. for 10 min to collect the plasma. The blood collection time points for the intravenous group and intragastric administration group were: 0 m, 5 m, 15 min, 30 min, 1 h, 2 h, 4 h, 7 h and 24 h. Before analysis and detection, all samples were stored at −80° C., and a quantitative analysis of samples was performed using LC-MS/MS.

[3] = biological target: T3, hERG potassium ion channel (Homo sapiens, UniProt Q12809); assay: Effect on hERG potassium ion channel (manual patch-clamp, CHO cells); format: cell-based; conditions: CHO cells stably expressing hERG, whole cell patch-clamp; read-out: IC50 of the inhibitory effect on hERG potassium channel current
T3 construct: expressed in transfected cells
T3 sequence (Q12809 whole entry): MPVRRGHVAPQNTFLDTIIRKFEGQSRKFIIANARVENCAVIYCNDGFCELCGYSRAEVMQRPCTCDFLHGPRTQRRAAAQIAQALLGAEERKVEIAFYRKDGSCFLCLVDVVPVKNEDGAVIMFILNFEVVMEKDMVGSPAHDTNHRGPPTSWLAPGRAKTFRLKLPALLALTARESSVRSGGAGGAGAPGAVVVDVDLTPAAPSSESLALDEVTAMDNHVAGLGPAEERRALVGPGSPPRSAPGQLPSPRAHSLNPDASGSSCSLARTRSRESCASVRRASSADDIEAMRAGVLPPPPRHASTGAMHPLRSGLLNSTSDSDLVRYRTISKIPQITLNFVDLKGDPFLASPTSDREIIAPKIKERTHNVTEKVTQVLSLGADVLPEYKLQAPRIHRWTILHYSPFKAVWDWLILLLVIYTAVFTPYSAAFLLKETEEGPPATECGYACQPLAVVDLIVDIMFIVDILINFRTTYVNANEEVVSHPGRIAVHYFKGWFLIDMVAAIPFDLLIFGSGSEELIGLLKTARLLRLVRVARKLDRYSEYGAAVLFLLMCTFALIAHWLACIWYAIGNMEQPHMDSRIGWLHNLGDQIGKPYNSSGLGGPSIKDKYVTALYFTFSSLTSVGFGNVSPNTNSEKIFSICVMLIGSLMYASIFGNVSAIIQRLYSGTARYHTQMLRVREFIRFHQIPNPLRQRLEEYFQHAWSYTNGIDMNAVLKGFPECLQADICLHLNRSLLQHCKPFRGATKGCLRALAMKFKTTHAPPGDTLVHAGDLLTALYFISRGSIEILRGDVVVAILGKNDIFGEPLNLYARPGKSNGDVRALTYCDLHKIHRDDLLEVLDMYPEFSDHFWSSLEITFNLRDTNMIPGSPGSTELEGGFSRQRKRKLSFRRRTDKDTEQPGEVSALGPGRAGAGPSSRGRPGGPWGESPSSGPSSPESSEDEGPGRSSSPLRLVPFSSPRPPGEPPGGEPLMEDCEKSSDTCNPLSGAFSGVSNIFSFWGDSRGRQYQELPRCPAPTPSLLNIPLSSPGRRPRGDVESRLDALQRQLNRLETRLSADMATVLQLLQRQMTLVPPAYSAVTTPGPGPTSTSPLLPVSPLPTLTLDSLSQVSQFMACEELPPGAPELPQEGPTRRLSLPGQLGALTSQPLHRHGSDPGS
Description: 1. Experimental platform: electrophysiological manual patch-clamp system
2. Cell line: Chinese hamster ovary (CH—O) cell lines stably expressing hERG potassium ion channel
3. Experimental method: in CHO (Chinese Hamster Ovary) cells stably expressing hERG potassium channel, whole cell patch-clamp technique was used to record hERG potassium channel current at room temperature. The glass microelectrode was made of a glass electrode blank (BF150-86-10, Sutter) by a puller. The tip resistance after filling the liquid in the electrode was about 2-5 MQ. The glass microelectrode can be connected to the patch-clamp amplifier by inserting the glass microelectrode into an amplifier probe. The clamping voltage and data recording were controlled and recorded by the pClamp 10 software through a computer. The sampling frequency was 10 kHz, and the filtering frequency was 2 kHz. After the whole cell records were obtained, the cells were clamped at −80 mV, and the step voltage that induced the hERG potassium current (IhERG) was depolarized from −80 mV to +20 mV for 2 s, then repolarized to −50 mV, and returned to −80 mV after 1 s. This voltage stimulation was given every 10 s, and the administration process was started after the hERG potassium current was confirmed to be stable (at least 1 minute). The compound was administered for at least 1 minute at each test concentration, and at least 2 cells (n≥2) were tested at each concentration.
4. Data processing: Data analysis processing was carried out by using pClamp 10, GraphPad Prism 5 and Excel software. The inhibition degree of hERG potassium current (peak value of hERG tail current induced at −50 mV) at different compound concentrations was calculated by the following formula:
[formula] • where Inhibition % represents the percentage of inhibition of hERG potassium current by the compound, and I and Io represent the amplitude of hERG potassium current after and before the administration, respectively.
Compound IC50 was calculated using GraphPad Prism 5 software by fitting according to the following equation: […]
Among the equation, X represents the Log value of the tested concentration of the test sample, Y represents the inhibition percentage at the corresponding concentration, and Bottom and Top represent the minimum and maximum inhibition percentage, respectively.

CYP1A2 = biological target: T4, CYP1A2 (Homo sapiens, UniProt P05177); assay: CYP450 enzyme inhibition, human liver microsomes, CYP1A2; format: in vitro ADME
T4 construct: incubated with human liver microsomes and test compounds of different concentrations; from tissue; host or cells: human liver microsomes
T4 sequence (P05177 1-516): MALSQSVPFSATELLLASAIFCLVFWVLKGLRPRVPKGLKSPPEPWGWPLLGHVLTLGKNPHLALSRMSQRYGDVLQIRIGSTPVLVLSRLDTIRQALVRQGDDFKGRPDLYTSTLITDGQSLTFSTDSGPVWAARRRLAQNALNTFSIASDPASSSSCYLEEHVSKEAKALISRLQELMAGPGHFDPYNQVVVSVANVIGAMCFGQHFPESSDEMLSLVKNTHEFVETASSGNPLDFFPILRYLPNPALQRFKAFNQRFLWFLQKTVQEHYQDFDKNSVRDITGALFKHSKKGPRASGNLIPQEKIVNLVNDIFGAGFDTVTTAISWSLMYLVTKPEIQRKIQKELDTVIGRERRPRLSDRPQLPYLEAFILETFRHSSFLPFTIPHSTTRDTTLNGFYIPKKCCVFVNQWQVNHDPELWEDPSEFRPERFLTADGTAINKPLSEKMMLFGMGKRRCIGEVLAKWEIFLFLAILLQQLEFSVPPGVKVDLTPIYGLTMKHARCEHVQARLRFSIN
Method: (§3) The purpose of this study was to evaluate the effect of the test compound on the activity of five isoenzymes (CYP1A2, CYP2C9, CYP2C19, CYP2D6 and CYP3A4) of human liver microsomal cytochrome P450 (CYP) by using an in vitro testing system. The specific probe substrates of CYP450 isoenzymes were incubated with human liver microsomes and test compounds of different concentrations, and reduced nicotinamide adenine dinucleotide phosphate (NADPH) was added to initiate the reaction. After the completion of the reaction, the sample was treated and liquid chromatography-tandem mass spectrometry (LC-MS/MS) was used to quantitatively detect metabolites produced by specific substrates, changes in CYP enzyme activity were determined, and IC50 value was calculated to evaluate the inhibitory potential of the test compound on each CYP enzyme subtype.

CYP2C9 = biological target: T5, CYP2C9 (Homo sapiens, UniProt P11712); assay: CYP450 enzyme inhibition, human liver microsomes, CYP2C9; format: in vitro ADME
T5 construct: incubated with human liver microsomes and test compounds of different concentrations; from tissue; host or cells: human liver microsomes
Method: as §3

CYP2C19 = biological target: T6, CYP2C19 (Homo sapiens, UniProt P33261); assay: CYP450 enzyme inhibition, human liver microsomes, CYP2C19; format: in vitro ADME
T6 construct: incubated with human liver microsomes and test compounds of different concentrations; from tissue; host or cells: human liver microsomes
Method: as §3

CYP2D6 = biological target: T7, CYP2D6 (Homo sapiens, UniProt P10635); assay: CYP450 enzyme inhibition, human liver microsomes, CYP2D6; format: in vitro ADME
T7 construct: incubated with human liver microsomes and test compounds of different concentrations; from tissue; host or cells: human liver microsomes
Method: as §3

CYP3A4 = biological target: T8, CYP3A4 (Homo sapiens, UniProt P08684); assay: CYP450 enzyme inhibition, human liver microsomes, CYP3A4; format: in vitro ADME
T8 construct: incubated with human liver microsomes and test compounds of different concentrations; from tissue; host or cells: human liver microsomes
T8 sequence (P08684 whole entry): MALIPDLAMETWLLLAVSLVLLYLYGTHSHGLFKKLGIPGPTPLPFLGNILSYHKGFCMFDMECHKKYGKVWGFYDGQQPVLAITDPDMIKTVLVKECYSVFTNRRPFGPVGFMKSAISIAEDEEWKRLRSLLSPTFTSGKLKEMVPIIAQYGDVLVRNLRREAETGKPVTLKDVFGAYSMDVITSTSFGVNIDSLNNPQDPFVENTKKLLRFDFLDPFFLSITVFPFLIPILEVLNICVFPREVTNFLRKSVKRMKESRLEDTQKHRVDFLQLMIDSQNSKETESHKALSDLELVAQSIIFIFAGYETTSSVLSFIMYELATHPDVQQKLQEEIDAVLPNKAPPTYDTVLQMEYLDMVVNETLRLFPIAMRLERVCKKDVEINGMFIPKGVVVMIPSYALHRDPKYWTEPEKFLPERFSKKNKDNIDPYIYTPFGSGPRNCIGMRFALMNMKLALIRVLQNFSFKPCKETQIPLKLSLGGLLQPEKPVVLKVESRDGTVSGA
Method: as §3

[4] = Pharmacokinetic experiment in mouse muscle tissue (tibialis anterior / plasma); format: in vivo, C57 mice; conditions: male, C57, tibialis anterior muscle / plasma, oral, intragastric 10 mg/kg, read-out: Ratio = Tibialis anterior Conc./Plasma Conc.
Method: as §1
as §2, with “experiment,” for “experiment, 12”, “administration. Administration was performed as per Table 10.1.” for “administration.”

B10-Dmd-KO (Mdx) mice = assay: PK/PD detection of mouse model with Dmd (Mdx) gene mutation, plasma CK; format: in vivo; conditions: 10 mpk single administration, oral
Description: Experimental objective: Bl0-Dmd-KO (Mdx) mice are DMD function-deficient mice caused by frameshift mutations in the Dmd gene. […] This study has investigated the effects on CK and TNNI2 in the plasma of Mdx mice upon administration of compounds.
Experimental animal: B10-Dmd-KO (C57BL/10ScSnJGpt-Dmdem3Cd4/Gpt), male, 5-7 weeks old, weight 28-30 g, supplier. Gempharmatech Co., Ltd.;
• 1) Running training (D-5): Mdx mice underwent running training in batches. The training parameters were set as three time periods, i.e., the initial speed of 4 m/min for 2 min, then 8 m/min for 8 min, and finally 12 m/min for 30 min, a total of 40 min; • 2) Gripping strength test (D-2): each round was measured three times, and three rounds were performed; • 3) Grouping (DO): the animals were anesthetized by inhalation of isoflurane (concentration: 5%, gas flow rate: 1 L/min), and then a capillary tube was used to collect blood (about 150 μL) via orbital venous sinus into a 0.6 mL centrifuge tube containing EDTA anticoagulant, the plasma wad separated, and the CK value was detected, which was used as the basic value for grouping; • 4) Administration, grasping, and blood collection (D1): The compounds were dissolved in the vehicle 5% DMA+5% HS-15+90% Saline, then orally administered to the mice, and then the grip strength test was conducted (three tests per round for three rounds). […] A capillary tube was used to collect blood (>300 μL) via orbital venous sinus into a 0.6 mL centrifuge tube containing EDTA anticoagulant, and then the animals were euthanized to collect the tibialis anterior muscle (left leg), soleus muscle (both legs) and cardiac muscle, which were weighed and recorded, placed in a homogenization tube and quickly frozen in liquid nitrogen, then stored at −80° C.
Sample processing: After the whole blood anticoagulated with EDTA was centrifuged at 3000 rpm and 4° C. for 10 min, the […] was collected and subpackaged. The separated […] was subjected to a biochemical analyzer (Fully automatic biochemical analyzer Roche C311) to detect the CK value and TNN12 value (Mouse TNNI2 Elisa Kit, ABBEXA, E2207370Y); The […] concentration of the compound and the drug concentration in tibialis anterior muscle, soleus muscle and cardiac muscle were measured by LC/MS instrument.

[5] = inhibition of hydrolysis of ATP, class symbols, read-out: Rabbit skeletal muscle myosin (IC50)
[6] = read-out: IC50 for inhibition of hydrolysis of ATP by rabbit skeletal muscle myosin

Structure (SMILES) | IC50 [1, 5] | inhibition at 100 µM (cardiac myosin SII) | inhibition at 100 µM (smooth muscle myosin S1) | AUC(0-t) [2] | Cmax [2] | IC50 [1, 6] | half-life [2] | IC50 [3] | Kp at 6 h [4] | Kp at 24 h [4] | other results
O=c1ccc(-c2cnc(OCC(F)(F)F)nc2)nn1Cc1ccc2c(c1)C1CC1C2 (single isomer, unassigned) [Compound 160] | < 2500 nM | 8% | 3% | 8170 ng·h/mL | 1380 ng/mL | – | – | – | – | – | –
O=c1ccc(-c2cnc(OCC(F)(F)F)nc2)nn1Cc1ccc2c(c1)CC1CC21 (single isomer, unassigned) [Compound 162] | < 2500 nM | 13% | 16% | 6180 ng·h/mL | 688 ng/mL | 800 nM | – | – | – | – | –
O=c1ccc(-c2cnc(OCC(F)(F)F)nc2)nn1Cc1ccc2[nH]ncc2c1 [Comparative Example 1, reference compound] | – | – | – | 2210 ng·h/mL | 267 ng/mL | – | 18.9 h | 2500 nM | – | – | IC50 (CYP1A2): > 30 µM; IC50 (CYP2C9): 4.44 µM; IC50 (CYP2C19): 1.85 µM; IC50 (CYP2D6): 8.81 µM; IC50 (CYP3A4): > 30 µM
O=c1ccc(-c2cnc(OCC(F)(F)F)nc2)nn1Cc1ccc2c(c1)CC2 [Compound 56] | < 2500 nM | – | – | – | – | 340 nM | – | – | 175 | 316 | Inhibition rate of CK values (sampled 24 h after (last) dose) (B10-Dmd-KO (Mdx) mice): 88.4%
O=c1ccc(-c2cnc(C3CC3)nc2)nn1Cc1ccc2c(c1)CC2 [Compound 92] | < 2500 nM | 17% | – | – | – | 200 nM | – | > 40000 nM | – | – | –
O=C1CCc2ccc(Cn3nc(-c4cnc(Oc5cncc(F)c5)nc4)ccc3=O)cc21 [Compound 124] | < 2500 nM | 4% | -12% | – | – | – | – | > 40000 nM | – | – | –
Cn1cc(Oc2ncc(-c3ccc(=O)n(Cc4ccc5c(c4)CCC5)n3)cn2)cn1 [Compound 128] | 2500 to 20000 nM | -10% | -2% | 8320 ng·h/mL | 1090 ng/mL | – | – | – | – | – | –
O=C1CCc2ccc(Cn3nc(-c4cnc(OCC5CC5)nc4)ccc3=O)cc21 [Compound 129] | < 2500 nM | 22% | -2% | – | – | 200 nM | 41.9 h | – | 146 | 178 | –
O=C1CCc2ccc(Cn3nc(-c4cnc(OCC5(F)CC5)nc4)ccc3=O)cc21 [Compound 135] | < 2500 nM | – | 8% | – | – | 300 nM | 66.8 h | – | 133 | 165 | –
O=C1CCc2ccc(Cn3nc(-c4cnc(C5CC5)nc4)ccc3=O)cc21 [Compound 157] | < 2500 nM | 10% | -3% | – | – | – | – | > 40000 nM | – | – | –

From patent US20260217683A1, “PYRIDAZINONE HETEROCYCLIC COMPOUND MYOSIN II INHIBITOR AND USE THEREOF” (Xizang Haisco Pharmaceutical Co., Ltd., priority 2023, published 2026)
